According to patent US8093229B2, “Alkynyl pyrrolo[2,3-d]pyrimidines and related analogs as HSP90-inhibitors” (Conforma Therapeutics Corporation, priority 2005, dated 2012):
pIC50: −log10 of the molar value.

How the values were obtained:
Type in all cases: cell-based
[1] = test system: BT474 breast tumor cell line; test: MTS assay / secondary assay of killing tumor cells, BT474; conditions: Homo sapiens, BT-474
Description: (§1) The difference in potency index between alkynes and non-alkynes measured by a secondary assay is also striking. The secondary assay measures the efficiency of killing tumor cells. […] EC50 is defined as the amount of compound added to effect a 50% reduction in viable cell number. Selected compounds were tested on cells of MCF7 and BT474 breast tumor cell lines. […] TABLE 2 summarized the result of the assay.
(§2) 3-(4,5-dimethylthiazol-2-yl)-5-(3-carboxymethoxyphenyl)-2-(4-sulfophenyl)-2H-tetrazolium assays measure the cytotoxicity of geldanamycin derivatives. MTS (3-(4,5-dimethylthiazol-2-yl) -5-(3-carboxymethoxyphenyl)-2-(4-sulfophenyl)-2H-tetrazolium) is a tetrazolium dye that is converted to a formazan product by dehydrogenase enzymes of metabolically active cells (Corey, A. et al. “Use of an aqueous soluble tetrazolium/formazan assay for cell growth assays in culture,” Cancer Commun. 1991, 3, 207-212). Cells were seeded in 96 well plates at 2000 cells/well and allowed to adhere overnight in Dulbecco's modified Eagle's medium supplemented with 10% fetal bovine serum. The final culture volume was 100 μl. Viable cell number was determined by using the Celltiter 96 AQueous Non-radioactive Cell Proliferation Assay (Promega, Madison Wis.). The MTS/PMS (phenazine methosulfate) solution was mixed at a ratio of 20:1, and 20 μL was added per well to 100 μl of culture medium. After 2-4 hours, the formation of the formazan product was measured at 490 nm absorbance using a multiwell plate spectrophotometer. Background was determined by measuring the Abs 490 nm of cell culture medium and MTS-PMS in the absence of cells and was subtracted from all values. Percent viable cells was calculated as follows: % viable cells=(Abs at 490 nm treated cells/Abs at 490 nm untreated cells)×100

[2] = test system: MCF7 breast carcinoma cells; test: MTS assay / secondary assay of killing tumor cells, MCF7; conditions: for pIC50: Homo sapiens, MCF7
Description: as §1, §2
The effect of selected compounds of the invention on MCF7 breast carcinoma cells according to the MTS assay is summarized in table 3. IC50 was defined as the concentration of the compound which gave rise to 50% reduction in viable cell number.

HER2/Neu protein = test: Her2 degradation assay; conditions: MCF7 cells, 16 h
Source text: [drawing 219] wherein R^3′ is not alkynyl, which were disclosed in U.S. patent application Ser. No. 10/945,851 and PCT Application US04/31248. The pyrrolopyrimidine compounds specified in the EXAMPLE sections of the above patent applications carry either no substituent or a substituted alkyl group. […] A simple alkyl or a substituted alkyl at C-5 (ie R^3=alkyl or substituted alkyl) can only bring two-fold additional activity. Conversely, if C-5 is alkyne substituted, the potency increases approximately 10-20 fold. (See, Series A: compounds A, B, C and D below).
Many cancers are associated with the over expression Her2 protein. It has been shown that compounds able to diminish Her2 levels show good promise as anti-cancer agents.
MCF7 breast carcinoma cells (ATCC) were grown in Dulbecco's modified Eagle's medium (DMEM) containing 10% fetal bovine serum (FBS) and 10 mM HEPES, and plated in 24 well plates (50% confluent). […] Samples were analyzed using a FACSCalibur™ flow cytometer (Becton Dickinson, San Jose, Calif.) equipped with Argon-ion laser that emits 15 mW of 488 nm light for excitation of the PE fluorochrome. […] A fluorescence histogram was generated and the mean fluorescence intensity (MFI) of each sample was determined using Cellquest software. […] Percent degradation of Her2 was calculated as follows: % Her2 degraded=[(MFI untreated cells−MFI treated cells)/MFI untreated cell]×100. […]

Row | pIC50 (HER2/Neu protein) | Structure (SMILES) | pIC50 [1] | pIC50 [2] | potency index relative to 17-AAG ([2]; cell line not specified, MCF7 and BT474 tested)
1 | 7.92 | COc1c(C)cnc(Cn2cc(C#CCO)c3c(Cl)nc(N)nc32)c1C [Example 1, 3-[2-amino-4-chloro-7-(4-methoxy-3,5-dimethyl-pyridin-2-ylmethyl)-7H-pyrrolo [2,3-d]pyrimidin-5-yl]-prop-2-yn-1-ol] | 7.70 | 6.89 | –
2 | – | COc1c(C)cnc(Cn2cc(C#CCCO)c3c(Cl)nc(N)nc32)c1C [Example 2, 4-[2-Amino-4-chloro-7-(4-methoxy-3,5-dimethyl-pyridin-2-ylmethyl)-7H-pyrrolo[2,3-d]pyrimidin-5-yl]-but-3-yn-1-ol] | 8.22 | 7.89 | –
3 | – | COc1c(C)cnc(Cn2cc(C#CCCCO)c3c(Cl)nc(N)nc32)c1C [Example 3, 5-[2-Amino-4-chloro-7-(4-methoxy-3,5-dimethyl-pyridin-2-ylmethyl)-7H-pyrrolo[2,3-d]pyrimidin-5-yl]-pent-4-yn-1-ol] | 8.10 | 7.89 | –
4 | 7.26 | COc1c(C)cnc(Cn2cc(C#CCN(C(C)C)C(C)C)c3c(Cl)nc(N)nc32)c1C [Example 5, 4-Chloro-5-(3-diisopropylamino-prop-1-ynyl)-7-(4-methoxy-3,5-dimethyl-pyridin-2-ylmethyl)-7H-pyrrolo[2,3-d]pyrimidin-2-ylamine] | 7.10 | 7.00 | –
5 | – | COc1c(C)cnc(Cn2cc(C#CCCCCO)c3c(Cl)nc(N)nc32)c1C [Example 7, 6-[2-Amino-4-chloro-7-(4-methoxy-3,5-dimethyl-pyridin-2-ylmethyl)-7H-pyrrolo[2,3-d]pyrimidin-5-yl]-hex-5-yn-1-ol] | 7.70 | 6.70 | –
6 | – | CCN(CC)C(=O)CCC#Cc1cn(Cc2ncc(C)c(OC)c2C)c2nc(N)nc(Cl)c12 [Example 10] | 7.30 | 6.15 | –
7 | – | COc1c(C)cnc(Cn2cc(C#CCCC(=O)N3CCN(C)CC3)c3c(Cl)nc(N)nc32)c1C [Example 11] | 7.70 | 7.00 | –
8 | – | COc1c(C)cnc(Cn2cc(C#CCCC(N)=O)c3c(Cl)nc(N)nc32)c1C [Example 12, 5-[2-Amino-4-chloro-7-(4-methoxy-3,5-dimethyl-pyridin-2-ylmethyl)-7H-pyrrolo[2,3-d]pyrimidin-5-yl]-pent-4-ynoic acid amide] | 7.70 | 7.52 | –
9 | – | COc1c(C)cnc(Cn2cc(C#CCCCNC(=O)OC(C)(C)C)c3c(Cl)nc(N)nc32)c1C [Example 15, {5-[2-Amino-4-chloro-7-(4-methoxy-3,5-dimethyl-pyridin-2-ylmethyl)-7H-pyrrolo [2,3-d]pyrimidin-5-yl]-pent-4-ynyl}-carbamic acid tert-butyl ester] | 6.00 | 7.22 | –
10 | – | COc1c(C)cnc(Cn2cc(C#CCCCN)c3c(Cl)nc(N)nc32)c1C [Example 16, 5-(5-Amino-pent-1-ynyl)-4-chloro-7-(4-methoxy-3,5-dimethyl-pyridin-2-ylmethyl)-7H-pyrrolo [2,3-d]pyrimidin-2-ylamine] | < 5.00 | 7.05 | –
11 | – | COc1c(C)cnc(Cn2cc(C#CCCCN3C(=O)c4ccccc4C3=O)c3c(Cl)nc(N)nc32)c1C [Example 17] | 7.00 | 8.00 | –
12 | – | COc1c(C)cnc(Cn2cc(C#CCCN3CCOCC3)c3c(Cl)nc(N)nc32)c1C [Example 18] | 6.00 | 7.30 | –
13 | – | COc1c(C)cnc(Cn2cc(C#CCCCN3CCOCC3)c3c(Cl)nc(N)nc32)c1C [Example 19] | 6.00 | 7.00 | –
14 | – | COc1c(C)cnc(Cn2cc(C#CCCNC(C)(C)C)c3c(Cl)nc(N)nc32)c1C [Example 20, 5-(4-tert-Butylamino-but-1-ynyl)-4-chloro-7-(4-methoxy-3,5-dimethyl-pyridin-2-ylmethyl) -7H-pyrrolo[2,3-d]pyrimidin-2-ylamine] | 7.64 | 6.89 | –
15 | – | COc1c(C)cnc(Cn2cc(C#CCCCNC(C)(C)C)c3c(Cl)nc(N)nc32)c1C [Example 21, 5-(5-tert-Butylamino-pent-1-ynyl)-4-chloro-7-(4-methoxy-3,5-dimethyl-pyridin-2-ylmethyl) -7H-pyrrolo[2,3-d]pyrimidin-2-ylamine] | 7.52 | 6.64 | –
16 | – | COc1c(C)cnc(Cn2cc(C#CCOC(=O)CN(C)C)c3c(Cl)nc(N)nc32)c1C [Example 22, Dimethylamino-acetic acid 3-[2-amino-4-chloro-7-(4-methoxy-3,5-dimethyl-pyridin-2-ylmethyl)-7H-pyrrolo[2,3-d]pyrimidin-5-yl]-prop-2-ynyl ester] | 7.70 | 6.70 | –
17 | – | COc1c(C)cnc(Cn2cc(C#CCCN3C(=O)c4ccccc4C3=O)c3c(Cl)nc(N)nc32)c1C [H] | – | – | more potent than 17-AAG
